Measurements from patent US9549932B2, “2-(morpholin-4-yl)-1,7-naphthyridines” (BAYER PHARMA AKTIENGESELLSCHAFT, priority 2014, dated 2017).

These molecules were tested against full-length human ATR protein (Homo sapiens (Human), UniProt Q13535) (assay: Binding assay ATR (TR-FRET tracer displacement)). Settings: read-out: ATR binding (tracer A) IC50.
full-length human ATR protein, sequence (Q13535 other isoform, or with tags, fused parts or gaps): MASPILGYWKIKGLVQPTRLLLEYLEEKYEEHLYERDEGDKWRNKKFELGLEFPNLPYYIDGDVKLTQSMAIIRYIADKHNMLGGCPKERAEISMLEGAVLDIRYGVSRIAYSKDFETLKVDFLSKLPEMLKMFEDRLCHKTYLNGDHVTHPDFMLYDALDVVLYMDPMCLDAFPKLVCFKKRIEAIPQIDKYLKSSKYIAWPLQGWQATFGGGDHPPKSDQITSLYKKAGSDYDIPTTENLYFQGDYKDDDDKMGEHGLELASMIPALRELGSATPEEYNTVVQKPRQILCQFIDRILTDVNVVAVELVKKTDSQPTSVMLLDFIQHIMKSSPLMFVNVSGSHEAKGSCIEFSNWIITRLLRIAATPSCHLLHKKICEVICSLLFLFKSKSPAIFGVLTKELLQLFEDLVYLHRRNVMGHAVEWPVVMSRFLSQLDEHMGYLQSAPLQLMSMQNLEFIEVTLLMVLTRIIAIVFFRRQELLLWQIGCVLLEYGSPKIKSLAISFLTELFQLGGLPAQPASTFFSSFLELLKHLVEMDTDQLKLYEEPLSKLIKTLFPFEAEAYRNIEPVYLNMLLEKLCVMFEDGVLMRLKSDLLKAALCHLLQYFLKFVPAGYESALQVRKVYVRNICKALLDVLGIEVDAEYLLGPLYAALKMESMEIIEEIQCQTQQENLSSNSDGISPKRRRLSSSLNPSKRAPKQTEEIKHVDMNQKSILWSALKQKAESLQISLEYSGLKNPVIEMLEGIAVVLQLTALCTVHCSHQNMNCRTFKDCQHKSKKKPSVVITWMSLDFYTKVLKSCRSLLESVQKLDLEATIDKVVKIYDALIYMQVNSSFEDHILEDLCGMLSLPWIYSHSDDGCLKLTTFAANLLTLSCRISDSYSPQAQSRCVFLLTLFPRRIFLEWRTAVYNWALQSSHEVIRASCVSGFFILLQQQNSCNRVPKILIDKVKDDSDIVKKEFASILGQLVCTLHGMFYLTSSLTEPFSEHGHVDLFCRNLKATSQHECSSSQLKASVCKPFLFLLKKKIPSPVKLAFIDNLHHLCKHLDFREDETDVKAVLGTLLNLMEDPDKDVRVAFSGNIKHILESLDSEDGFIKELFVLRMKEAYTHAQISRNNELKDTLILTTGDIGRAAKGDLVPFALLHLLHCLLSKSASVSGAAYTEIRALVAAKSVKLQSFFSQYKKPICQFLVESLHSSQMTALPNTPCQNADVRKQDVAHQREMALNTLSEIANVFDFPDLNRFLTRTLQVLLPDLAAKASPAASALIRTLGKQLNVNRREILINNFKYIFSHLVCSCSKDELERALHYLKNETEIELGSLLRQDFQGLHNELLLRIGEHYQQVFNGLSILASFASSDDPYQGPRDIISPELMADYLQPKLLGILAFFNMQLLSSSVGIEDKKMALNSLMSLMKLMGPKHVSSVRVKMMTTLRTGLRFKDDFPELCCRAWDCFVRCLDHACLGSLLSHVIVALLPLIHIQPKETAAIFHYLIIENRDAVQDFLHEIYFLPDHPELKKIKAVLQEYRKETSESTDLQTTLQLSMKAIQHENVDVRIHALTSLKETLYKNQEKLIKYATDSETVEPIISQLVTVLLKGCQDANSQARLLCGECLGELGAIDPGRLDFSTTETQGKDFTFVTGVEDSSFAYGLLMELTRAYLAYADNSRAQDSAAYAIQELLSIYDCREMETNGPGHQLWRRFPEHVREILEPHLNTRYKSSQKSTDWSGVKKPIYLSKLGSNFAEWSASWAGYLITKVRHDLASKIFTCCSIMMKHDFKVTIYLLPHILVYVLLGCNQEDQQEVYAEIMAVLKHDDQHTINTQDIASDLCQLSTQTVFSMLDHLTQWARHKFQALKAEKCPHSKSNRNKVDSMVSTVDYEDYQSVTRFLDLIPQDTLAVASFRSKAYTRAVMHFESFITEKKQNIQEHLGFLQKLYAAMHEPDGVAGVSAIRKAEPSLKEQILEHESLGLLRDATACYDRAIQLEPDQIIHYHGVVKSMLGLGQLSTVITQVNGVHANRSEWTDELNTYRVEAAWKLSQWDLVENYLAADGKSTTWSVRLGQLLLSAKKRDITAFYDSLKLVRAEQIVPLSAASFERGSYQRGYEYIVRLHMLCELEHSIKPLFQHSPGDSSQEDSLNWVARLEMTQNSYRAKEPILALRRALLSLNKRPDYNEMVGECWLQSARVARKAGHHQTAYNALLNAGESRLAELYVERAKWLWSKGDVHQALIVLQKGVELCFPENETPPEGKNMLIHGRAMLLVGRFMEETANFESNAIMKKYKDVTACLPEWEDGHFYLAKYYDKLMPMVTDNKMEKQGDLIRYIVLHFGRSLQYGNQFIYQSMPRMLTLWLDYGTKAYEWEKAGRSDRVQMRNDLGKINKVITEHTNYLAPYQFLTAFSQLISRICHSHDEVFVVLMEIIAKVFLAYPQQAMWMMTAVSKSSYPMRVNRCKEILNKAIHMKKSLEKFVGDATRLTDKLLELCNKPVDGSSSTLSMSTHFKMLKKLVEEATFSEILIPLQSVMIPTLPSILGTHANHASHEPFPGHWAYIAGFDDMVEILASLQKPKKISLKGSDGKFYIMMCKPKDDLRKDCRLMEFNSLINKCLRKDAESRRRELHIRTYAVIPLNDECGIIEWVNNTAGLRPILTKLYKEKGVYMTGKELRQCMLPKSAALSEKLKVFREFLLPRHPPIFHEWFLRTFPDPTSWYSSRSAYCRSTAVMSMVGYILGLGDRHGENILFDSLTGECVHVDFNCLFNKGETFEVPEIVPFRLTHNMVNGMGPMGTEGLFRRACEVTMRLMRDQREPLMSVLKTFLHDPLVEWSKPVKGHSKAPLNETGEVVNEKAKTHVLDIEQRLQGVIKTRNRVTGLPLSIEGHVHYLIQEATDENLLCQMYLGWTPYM
full-length human ATR protein, sequence (Q8WXE1 other isoform, or with tags, fused parts or gaps partner): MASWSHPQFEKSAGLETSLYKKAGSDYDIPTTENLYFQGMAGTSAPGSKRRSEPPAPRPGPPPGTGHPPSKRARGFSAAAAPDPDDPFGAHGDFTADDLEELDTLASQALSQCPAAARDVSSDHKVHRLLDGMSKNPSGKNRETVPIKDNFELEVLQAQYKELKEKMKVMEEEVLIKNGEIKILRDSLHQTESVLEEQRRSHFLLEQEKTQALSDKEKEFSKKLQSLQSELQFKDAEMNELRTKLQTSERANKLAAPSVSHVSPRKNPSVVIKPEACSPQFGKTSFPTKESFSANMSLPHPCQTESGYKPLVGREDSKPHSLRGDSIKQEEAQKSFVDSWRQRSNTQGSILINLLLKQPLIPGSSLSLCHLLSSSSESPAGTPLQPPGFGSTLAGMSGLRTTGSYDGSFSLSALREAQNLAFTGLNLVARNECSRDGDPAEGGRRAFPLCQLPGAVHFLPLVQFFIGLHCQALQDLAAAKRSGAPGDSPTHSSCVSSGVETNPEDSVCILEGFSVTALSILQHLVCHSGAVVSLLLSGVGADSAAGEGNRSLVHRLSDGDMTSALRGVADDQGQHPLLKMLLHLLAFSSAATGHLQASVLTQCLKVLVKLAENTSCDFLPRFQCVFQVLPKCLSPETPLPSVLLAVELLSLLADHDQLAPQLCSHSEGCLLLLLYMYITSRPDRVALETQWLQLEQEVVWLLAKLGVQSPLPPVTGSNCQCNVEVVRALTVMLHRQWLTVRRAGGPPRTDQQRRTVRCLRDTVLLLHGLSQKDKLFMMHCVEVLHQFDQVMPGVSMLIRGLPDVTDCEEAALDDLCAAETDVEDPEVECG
Summary of the method: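 Full-length human GST-ATR co-purified with ATRIP, pre-complexed 30 min at 22 °C with anti-GST-Tb antibody, then pre-bound with compound 10 min. Tracer A or B added (2 µl of 100 nM solution), 30 min at 22 °C.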
Work on `COP(=O)(O)c1ccc(-c2cc(N3CCOCC3)nc3c(-c4ccn[nH]4)nccc23)cc1` [Example 181, Methyl hydrogen {4-[2-(morpholin-4-yl)-8-(1H-pyrazol-5-yl)-1,7-naphthyridin-4-yl]phenyl}phosphonate] yielded an IC50 of 539 nM.

Same assay, conditions: tracer A, TR-FRET; read-out: ATR binding (tracer A) IC50
Molecule `C[C@@H]1COCCN1c1cc(-c2ccc(F)cn2)c2ccnc(-c3ccn[nH]3)c2n1` [Example 163, 4-(5-fluoropyridin-2-yl)-2-[(3R)-3-methylmorpholin-4-yl]-8-(1H-pyrazol-5-yl)-1,7-naphthyridine] has an IC50 of 107 nM.
With `Cc1cccc(-c2cc(N3CCOC[C@H]3C)nc3c(-c4ccn[nH]4)nccc23)n1` [Example 164, 2-[(3R)-3-methylmorpholin-4-yl]-4-(6-methylpyridin-2-yl)-8-(1H-pyrazol-5-yl)-1,7-naphthyridine] the IC50 was 161 nM.
Work on `Cc1cccnc1-c1cc(N2CCOC[C@H]2C)nc2c(-c3ccn[nH]3)nccc12` [Example 165, 2-[(3R)-3-methylmorpholin-4-yl]-4-(3-methylpyridin-2-yl)-8-(1H-pyrazol-5-yl)-1,7-naphthyridine] yielded an IC50 of 224 nM.
Molecule `CC(=O)Nc1ccccc1-c1cc(N2CCOC[C@H]2C)nc2c(-c3ccn[nH]3)nccc12` [Example 166, N-(2-{2-[(3R)-3-methylmorpholin-4-yl]-8-(1H-pyrazol-5-yl)-1,7-naphthyridin-4-yl}phenyl)acetamide] has an IC50 of 365 nM.
Work on `C[C@@H]1COCCN1c1cc(-c2cccnc2O)c2ccnc(-c3ccn[nH]3)c2n1` [Example 167, 3-{2-[(3R)-3-methylmorpholin-4-yl]-8-(1H-pyrazol-5-yl)-1,7-naphthyridin-4-yl}pyridin-2-ol] yielded an IC50 of 408 nM.
`C[C@@H]1COCCN1c1cc(-c2cccc(C(C)(C)O)c2)c2ccnc(-c3ccn[nH]3)c2n1` [Example 168, 2-(3-{2-[(3R)-3-methylmorpholin-4-yl]-8-(1H-pyrazol-5-yl)-1,7-naphthyridin-4-yl}phenyl)propan-2-ol] was tested, and the IC50 was 530 nM.
Work on `c1cc(-c2nccc3c(N4CCn5ccnc5C4)cc(N4CCOCC4)nc23)[nH]n1` [Example 169, 4-(5,6-dihydroimidazo[1,2-a]pyrazin-7(8H)-yl)-2-(morpholin-4-yl)-8-(1H-pyrazol-5-yl)-1,7-naphthyridine] yielded an IC50 of 115 nM.
In the case of `C[C@H]1CN(c2cc(N3CCOCC3)nc3c(-c4ccn[nH]4)nccc23)CCO1` [Example 170, 4-[(2S)-2-methylmorpholin-4-yl]-2-(morpholin-4-yl)-8-(1H-pyrazol-5-yl)-1,7-naphthyridine], the IC50 is reported as 168 nM.
`C[C@@H]1COCCN1c1cc(OC(F)F)c2ccnc(-c3ccn[nH]3)c2n1` [Example 172, 4-(difluoromethoxy)-2-[(3R)-3-methylmorpholin-4-yl]-8-(1H-pyrazol-5-yl)-1,7-naphthyridine] showed an IC50 of 82.8 nM.
`CC(C)(O)c1cc(N2CCOCC2)nc2c(-c3ccn[nH]3)nccc12` [Example 173, 2-[2-(morpholin-4-yl)-8-(1H-pyrazol-5-yl)-1,7-naphthyridin-4-yl]propan-2-ol] gave an IC50 of 205 nM.
With `c1cc(-c2nccc3c(N4C5CCC4COC5)cc(N4CCOCC4)nc23)[nH]n1` [Example 174, 2-(morpholin-4-yl)-4-(3-oxa-8-azabicyclo[3.2.1]oct-8-yl)-8-(1H-pyrazol-5-yl)-1,7-naphthyridine] the IC50 was 213 nM.
Work on `C[C@@H]1COCCN1c1cc(N2CCCC2)c2ccnc(-c3ccn[nH]3)c2n1` [Example 175, 2-[(3R)-3-methylmorpholin-4-yl]-8-(1H-pyrazol-5-yl)-4-(pyrrolidin-1-yl)-1,7-naphthyridine] yielded an IC50 of 221 nM.
Work on `O=C1CN(c2cc(N3CCOCC3)nc3c(-c4ccn[nH]4)nccc23)CCN1` [Example 176, 4-[2-(morpholin-4-yl)-8-(1H-pyrazol-5-yl)-1,7-naphthyridin-4-yl]piperazin-2-one] yielded an IC50 of 223 nM.
Work on `CP(C)(=O)c1cc(N2CCOCC2)nc2c(-c3ccn[nH]3)nccc12` [Example 177, 4-(dimethylphosphoryl)-2-(morpholin-4-yl)-8-(1H-pyrazol-5-yl)-1,7-naphthyridine] yielded an IC50 of 250 nM.
`C[C@@H]1CN(c2cc(N3CCOCC3)nc3c(-c4ccn[nH]4)nccc23)C[C@H](C)N1` [Example 179, 4-[(cis)-3,5-dimethylpiperazin-1-yl]-2-(morpholin-4-yl)-8-(1H-pyrazol-5-yl)-1,7-naphthyridine] showed an IC50 of 454 nM.
Work on `OC1(C(F)(F)F)CN(c2cc(N3CCOCC3)nc3c(-c4ccn[nH]4)nccc23)C1` [Example 180, 1-[2-(morpholin-4-yl)-8-(1H-pyrazol-5-yl)-1,7-naphthyridin-4-yl]-3-(trifluoromethyl)azetidin-3-ol] yielded an IC50 of 487 nM.
`CN1CCN(c2cc(N3CCOCC3)nc3c(-c4ccn[nH]4)nccc23)CC1` [Example 182, 4-(4-methylpiperazin-1-yl)-2-(morpholin-4-yl)-8-(1H-pyrazol-5-yl)-1,7-naphthyridine] gave an IC50 of 632 nM.
For `c1cc(-c2nccc3c(N4C[C@H]5COC[C@H]5C4)cc(N4CCOCC4)nc23)[nH]n1` [Example 183, 2-(morpholin-4-yl)-8-(1H-pyrazol-5-yl)-4-[(3aR,6aS)-tetrahydro-1H-furo[3,4-c]pyrrol-5(3H)-yl]-1,7-naphthyridine], the IC50 was 649 nM.
`COC1(C)CN(c2cc(N3CCOCC3)nc3c(-c4ccn[nH]4)nccc23)C1` [Example 184, 4-(3-methoxy-3-methylazetidin-1-yl)-2-(morpholin-4-yl)-8-(1H-pyrazol-5-yl)-1,7-naphthyridine] was tested, and the IC50 was 763 nM.
Molecule `CSCc1cc(N2CCOC[C@H]2C)nc2c(-c3ccn[nH]3)nccc12` [Example 186, 2-[(3R)-3-methylmorpholin-4-yl]-4-[(methylsulfanyl)methyl]-8-(1H-pyrazol-5-yl)-1,7-naphthyridine] has an IC50 of 67.4 nM.
`Cc1cc(-c2cc(N3CCOCC3)nc3c(-c4ccn[nH]4)nccc23)ccn1` [Example 188, 4-(2-methylpyridin-4-yl)-2-(morpholin-4-yl)-8-(1H-pyrazol-5-yl)-1,7-naphthyridine] was tested, and the IC50 was 251 nM.
For `C[C@@H]1COCCN1c1cc(C2(O)CCCCC2)c2ccnc(-c3ccn[nH]3)c2n1` [Example 189, 1-{2-[(3R)-3-methylmorpholin-4-yl]-8-(1H-pyrazol-5-yl)-1,7-naphthyridin-4-yl}cyclohexanol], the IC50 was 21.4 nM.
`CS(=O)(=NC#N)c1ccc(-c2cc(N3CCOCC3)nc3c(-c4ccn[nH]4)nccc23)cc1` (stereo not shown) [Example 191, (methyl{4-[2-(morpholin-4-yl)-8-(1H-pyrazol-5-yl)-1,7-naphthyridin-4-yl]phenyl}oxido-λ^6-sulfanylidene)cyanamide] gave an IC50 of 44.1 nM.
`CCNC(=O)N=S(C)(=O)c1ccc(-c2cc(N3CCOCC3)nc3c(-c4ccn[nH]4)nccc23)cc1` (stereo not shown) [Example 192, 1-ethyl-3-(methyl{4-[2-(morpholin-4-yl)-8-(1H-pyrazol-5-yl)-1,7-naphthyridin-4-yl]phenyl}oxido-λ^6-sulfanylidene)urea] was tested, and the IC50 was 115 nM.
In the case of `C[C@@H]1COCCN1c1cc(OCCCN)c2ccnc(-c3ccn[nH]3)c2n1` [Example 193, 3-({2-[(3R)-3-methylmorpholin-4-yl]-8-(1H-pyrazol-5-yl)-1,7-naphthyridin-4-yl}oxy)propan-1-amine], the IC50 is reported as 245 nM.
`C[C@@H]1COCCN1c1cc(-c2[nH]nnc2C2CC2)c2ccnc(-c3ccn[nH]3)c2n1` [Example 194, 4-(4-cyclopropyl-1H-1,2,3-triazol-5-yl)-2-[(3R)-3-methylmorpholin-4-yl]-8-(1H-pyrazol-5-yl)-1,7-naphthyridine] showed an IC50 of 37.6 nM.
In the case of `CC[S+]([O-])c1cc(N2CCOCC2)nc2c(-c3ccn[nH]3)nccc12` (stereo not shown) [Example 195, 4-ethylsulfinyl-2-(morpholin-4-yl)-8-(1H-pyrazol-5-yl)-1,7-naphthyridine], the IC50 is reported as 71.4 nM.
Molecule `CC(C)[S+]([O-])c1cc(N2CCOCC2)nc2c(-c3ccn[nH]3)nccc12` (stereo not shown) [Example 196, 2-(morpholin-4-yl)-4-[propan-2-ylsulfinyl]-8-(1H-pyrazol-5-yl)-1,7-naphthyridine] has an IC50 of 72.6 nM.
`C[C@@H]1COCCN1c1cc(OCCCS(C)(=O)=O)c2ccnc(-c3ccn[nH]3)c2n1` [Example 197, 2-[(3R)-3-methylmorpholin-4-yl]-4-[3-(methylsulfonyl)propoxy]-8-(1H-pyrazol-5-yl)-1,7-naphthyridine] showed an IC50 of 72.4 nM.
`O=S(=O)(c1ccccc1)c1cc(N2CCOCC2)nc2c(-c3ccn[nH]3)nccc12` [Example 198, 2-(morpholin-4-yl)-4-(phenylsulfonyl)-8-(1H-pyrazol-5-yl)-1,7-naphthyridine] showed an IC50 of 293 nM.
`CC(C)S(=O)(=O)c1cc(N2CCOCC2)nc2c(-c3ccn[nH]3)nccc12` [Example 199, 2-(morpholin-4-yl)-4-(propan-2-ylsulfonyl)-8-(1H-pyrazol-5-yl)-1,7-naphthyridine] was tested, and the IC50 was 138 nM.
`CCS(=O)(=O)c1cc(N2CCOCC2)nc2c(-c3ccn[nH]3)nccc12` [Example 200, 4-(ethylsulfonyl)-2-(morpholin-4-yl)-8-(1H-pyrazol-5-yl)-1,7-naphthyridine] gave an IC50 of 86.9 nM.
`[O-][S+](c1ccccc1)c1cc(N2CCOCC2)nc2c(-c3ccn[nH]3)nccc12` (stereo not shown) [Example 201, 2-(morpholin-4-yl)-4-(phenylsulfinyl)-8-(1H-pyrazol-5-yl)-1,7-naphthyridine] showed an IC50 of 40 nM.
`C[S+]([O-])c1cc(N2CCOCC2)nc2c(-c3ccn[nH]3)nccc12` (stereo not shown) [Example 202, 4-(methylsulfinyl)-2-(morpholin-4-yl)-8-(1H-pyrazol-5-yl)-1,7-naphthyridine] gave an IC50 of 78.3 nM.
For `C[C@@H]1COCCN1c1cc(C2CC[S+]([O-])CC2)c2ccnc(-c3ccn[nH]3)c2n1` (stereo partly drawn) [Example 203, 2-[(3R)-3-methylmorpholin-4-yl]-4-[1-oxidotetrahydro-2H-thiopyran-4-yl]-8-(1H-pyrazol-5-yl)-1,7-naphthyridine], the IC50 was 11.3 nM.
In the case of `C[C@@H]1COCCN1c1cc(C2CCS(=O)(=O)CC2)c2ccnc(-c3ccn[nH]3)c2n1` [Example 204, 4-(1,1-dioxidotetrahydro-2H-thiopyran-4-yl)-2-[(3R)-3-methylmorpholin-4-yl]-8-(1H-pyrazol-5-yl)-1,7-naphthyridine], the IC50 is reported as 6.76 nM.
